System: rat diabetic nephropathy model
Assay: Pharmacological effect in rat diabetic nephropathy model (streptozotocin)
Assay type: in vivo, rat (spontaneously hypertensive rat)
Conditions: Day 27 after streptozotocin; orally once per day for 20 days from Day 8 (Example Compound 1 10 mg/kg, imidapril 2 mg/kg); mean±standard error, n=6
Description: Example Compound 1 was administered to a rat diabetic nephropathy model (International Journal of Molecular Medicine, 2007, vol. 19, p. 571-579; Hypertension, 1998, vol. 32, p. 778-785), and the therapeutic effect of the nipecotic acid derivative (I) or a pharmaceutically acceptable salt thereof on chronic renal disease with diabetic nephropathy was evaluated.
Rats (spontaneously hypertensive rat, male, 12 or 13 weeks old; Charles River Laboratories Japan, Inc.) with diabetic nephropathy induced by administration of an aqueous streptozotocin (Enzo Life Sciences, Inc.) solution (40 mg/kg) into the tail vein were provided as “group with induced diabetic nephropathy”. On the other hand, rats to which water for injection was similarly administered were provided as “untreated group”.
Six weeks after administration of streptozotocin, urine was collected using a metabolic cage at room temperature for 24 hours. The urinary albumin concentration in the collected urine was measured by the ELISA method. From the urinary albumin concentration and the urine weight, the amount of urinary albumin excretion was calculated.
To rats showing pathological conditions of diabetic nephropathy in the group with induced diabetic nephropathy, Example Compound 1 (10 mg/kg) or a positive control compound imidapril (2 mg/kg) was orally administered once per day for 20 days from Day 8 after the administration of streptozotocin. […]
After the last administration of the test substance on Day 27 after administration of streptozotocin, urine was collected using a metabolic cage at room temperature for 24 hours. The urinary albumin concentration in the collected urine was measured by the ELISA method. From the urinary albumin concentration and the urine weight, the amount of urinary albumin excretion was calculated. In addition, on Day 18 after administration of streptozotocin, the systemic systolic pressure was measured by the tail-cuff method. On Day 29 after administration of streptozotocin, blood was collected from the abdominal aorta of each rat, and the plasma glucose concentration was measured. […]

| Compound | amount of urinary albumin excretion |
| --- | --- |
| CCOC(=O)[C@H](CCc1ccccc1)N[C@@H](C)C(=O)N1C(=O)N(C)C[C@H]1C(=O)O [imidapril, reference compound] | 5.66 ± 0.91 mg/day |

Molecular target: T1, recombinant human sEH (Homo sapiens, UniProt P34913)
T1 construct: purchased Cayman
T1 sequence (P34913 1-555): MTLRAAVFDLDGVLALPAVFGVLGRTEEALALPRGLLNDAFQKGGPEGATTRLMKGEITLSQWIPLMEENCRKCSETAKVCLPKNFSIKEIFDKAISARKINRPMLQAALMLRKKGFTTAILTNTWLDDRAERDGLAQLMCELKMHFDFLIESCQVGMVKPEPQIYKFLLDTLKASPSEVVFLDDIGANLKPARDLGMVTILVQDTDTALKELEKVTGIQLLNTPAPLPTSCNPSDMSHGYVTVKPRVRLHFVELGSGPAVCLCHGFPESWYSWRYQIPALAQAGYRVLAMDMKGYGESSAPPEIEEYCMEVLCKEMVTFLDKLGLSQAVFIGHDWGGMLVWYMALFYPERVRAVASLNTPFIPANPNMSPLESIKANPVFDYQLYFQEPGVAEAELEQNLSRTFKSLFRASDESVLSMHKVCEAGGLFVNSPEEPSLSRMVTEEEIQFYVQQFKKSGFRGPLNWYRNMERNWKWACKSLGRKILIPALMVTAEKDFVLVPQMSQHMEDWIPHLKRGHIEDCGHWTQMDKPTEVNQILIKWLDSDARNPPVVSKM
Assay: In vitro evaluation test for sEH inhibitory activity
Assay type: biochemical
Conditions: recombinant human sEH 0.026 μg/mL, fluorescent substrate 6.25 μmol/L, room temperature
Description: According to the method described in a known document (Analytical Biochemistry, 2005, vol. 343, p. 66-75), the sEH inhibitory activity of each nipecotic acid derivative (I) or a pharmaceutically acceptable salt thereof was evaluated using human sEH.
A recombinant human sEH (final concentration, 0.026 μg/mL; Cayman) was incubated with each test compound in 25 mM Bis-Tris-HCl buffer (pH 7.0) supplemented with 0.1 mg/mL BSA at room temperature for 30 minutes. Thereafter, cyano(6-methoxynaphthalen-2-yl)methyl 2-(3-phenyloxiran-2-yl)acetate (final concentration, 6.25 μmol/L; Cayman) was added thereto as a fluorescent substrate, and the resulting mixture was incubated at room temperature for 20 minutes. The reaction was then stopped by addition of ZnSO4 (final concentration, 0.2 mol/L), and the fluorescence intensity was measured (Fusion α (Packard); Excitation: 330 nm, Emission:485 nm).
The fluorescence intensity observed with addition of neither sEH nor a test compound was regarded as the sEH enzymatic reaction rate of 0%, and the fluorescence intensity observed with addition of sEH but without addition of a test compound was regarded as the sEH enzymatic reaction rate of 100%. From the obtained fluorescence intensity, the sEH enzymatic reaction rate of each test compound was calculated to determine IC50.

| Compound | IC50 |
| --- | --- |
| CS(=O)(=O)NC1(C(=O)N2CCC[C@@H](C(=O)NCc3ccc(C#N)cc3OC(F)(F)F)C2)CCOCC1 [Example Compound 28, (R)—N-(4-cyano-2-(trifluoromethoxy)benzyl)-1-(4-(methylsulfonamido)tetrahydro-2H-pyran-4-carbonyl)piperidine-3-carboxamide] | 2.3 nM |
| N#Cc1ccc(CNC(=O)[C@@H]2CCCN(C(=O)C3(NC(=O)C4CC4)CCC3)C2)c(OC(F)(F)F)c1 [Example Compound 29, (R)—N-(4-cyano-2-(trifluoromethoxy)benzyl)-1-(1-(cyclopropanecarboxamide)cyclobutanecarbonyl)piperidine-3-carboxamide] | 1.7 nM |
| CC(=O)N[C@@H](C(=O)N1CCC[C@@H](C(=O)NCc2ccc(C#N)cc2OC(F)(F)F)C1)C(C)(C)O [Example Compound 30, (R)-1-((R)-2-acetamido-3-hydroxy-3-methylbutanoyl)-N-(4-cyano-2-(trifluoromethoxy)benzyl)piperidine-3-carboxamide] | 1.4 nM |
| CCCC(=O)NC1(C(=O)N2CCC[C@@H](C(=O)NCc3ccc(C#N)cc3OC(F)(F)F)C2)CCC1 [Example Compound 33, (R)-1-(1-butylamidocyclobutanecarbonyl)-N-(4-cyano-2-(trifluoromethoxy)benzyl)piperidine-3-carboxamide] | 2.4 nM |
| N#Cc1ccc(CNC(=O)[C@@H]2CCCN(C(=O)C3(NC(=O)CC4CC4)CC3)C2)c(OC(F)(F)F)c1 [Example Compound 35, (R)—N-(4-cyano-2-(trifluoromethoxy)benzyl)-1-(1-(2-cyclopropylacetamido)cyclopropanecarbonyl)piperidine-3-carboxamide] | 6.7 nM |
| CC(C)(C(=O)N1CCC[C@@H](C(=O)NCc2ccc(C#N)cc2OC(F)(F)F)C1)n1cncn1 [Example Compound 36, (R)—N-(4-cyano-2-(trifluoromethoxy)benzyl)-1-(2-methyl-2-(1H-1,2,4-triazol-1-yl)propanoyl)piperidine-3-carboxamide] | 1.5 nM |
| O=C(NCc1ccc(Cl)cc1Cl)[C@@H]1CCCN(C(=O)C2(O)CCCCC2)C1 [Example Compound 38, (R)—N-(2,4-dichlorobenzyl)-1-(1-hydroxycyclohexanecarbonyl)piperidine-3-carboxamide] | 2.1 nM |
| C[C@@H](O)C(=O)N1CCC[C@@H](C(=O)NCc2ccc(C#N)cc2OC(F)(F)F)C1 [Example Compound 42, (R)—N-(4-cyano-2-(trifluoromethoxy)benzyl)-1-((R)-2-hydroxypropanoyl)piperidine-3-carboxamide] | 3.5 nM |

Continued, values first:

| IC50 | Compound |
| --- | --- |
| 1.3 nM | CCC(=O)N[C@@H](C(=O)N1CCC[C@@H](C(=O)NCc2ccc(C#N)cc2OC(F)(F)F)C1)C(C)(C)O [Example Compound 31, (R)—N-(4-cyano-2-(trifluoromethoxy)benzyl)-1-((R)-3-hydroxy-3-methyl-2-propionamidobutanoyl)piperidine-3-carboxamide] |
| 1.2 nM | CC[C@@H](O)C(=O)N1CCC[C@@H](C(=O)NCc2ccc(C#N)cc2OC(F)(F)F)C1 [Example Compound 43, (R)—N-(4-cyano-2-(trifluoromethoxy)benzyl)-1-((R)-2-hydroxybutanoyl)piperidine-3-carboxamide] |
| 1.1 nM | CC(C)(O)[C@@H](NS(C)(=O)=O)C(=O)N1CCC[C@@H](C(=O)NCc2ccc(Cl)cc2Cl)C1 [Example Compound 41, (R)—N-(2,4-dichlorobenzyl)-1-((R)-3-hydroxy-3-methyl-2-(methylsulfonamido)butanoyl)piperidine-3-carboxamide] |
| 1 nM | CC(C)(O)[C@@H](NS(C)(=O)=O)C(=O)N1CCC[C@@H](C(=O)NCc2ccc(C#N)cc2OC(F)(F)F)C1 [Example Compound 32, (R)—N-(4-cyano-2-(trifluoromethoxy)benzyl)-1-((R)-3-hydroxy-3-methyl-2-(methylsulfonamido)butanoyl)piperidine-3-carboxamide] |
| 0.8 nM | N#Cc1ccc(CNC(=O)[C@@H]2CCCN(C(=O)C3(NC(=O)CC4CC4)CCC3)C2)c(OC(F)(F)F)c1 [Example Compound 34, (R)—N-(4-cyano-2-(trifluoromethoxy)benzyl)-1-(1-(2-cyclopropylacetamido)cyclobutanecarbonyl)piperidine-3-carboxamide] |
| 0.7 nM | CC(=O)N[C@@H](C(=O)N1CCC[C@@H](C(=O)NCc2ccc(Cl)cc2Cl)C1)C(C)(C)O [Example Compound 39] |
| 0.7 nM | CCC(=O)N[C@@H](C(=O)N1CCC[C@@H](C(=O)NCc2ccc(Cl)cc2Cl)C1)C(C)(C)O [Example Compound 40, (R)—N-(2,4-dichlorobenzyl)-1-((R)-3-hydroxy-3-methyl-2-propionamidobutanoyl)piperidine-3-carboxamide] |
| 0.5 nM | CC(C)[C@@H](O)C(=O)N1CCC[C@@H](C(=O)NCc2ccc(C#N)cc2OC(F)(F)F)C1 [Example Compound 44, (R)—N-(4-cyano-2-(trifluoromethoxy)benzyl)-1-((R)-2-hydroxy-3-methylbutanoyl)piperidine-3-carboxamide] |
